Test results published in ChEMBL document CHEMBL4311967, “Continued exploration and tail approach synthesis of benzenesulfonamides containing triazole and dual triazole moieties as carbonic anhydrase I, II, IV and IX inhibitors” (Eur J Med Chem, 2019).

Biological target: Carbonic anhydrase 9 (Homo sapiens, UniProt Q16790)
Test: Inhibition of human carbonic anhydrase 9 assessed as reduction in CO2 hydration incubated for 1 hr by phenol red staining-based stopped flow assay

Q: For `NS(=O)(=O)c1ccc(-n2nnc(-c3nnc(SCC(=O)c4cccc([N+](=O)[O-])c4)[nH]3)c2-c2ccccc2)cc1`, which Ki is on record?
A: Its Ki is 192 nM.

Q: With `NS(=O)(=O)c1ccc(-n2nnc(-c3nnc(SCC(=O)c4ccc(Br)cc4)[nH]3)c2-c2ccccc2)cc1` as the molecule, how does the Ki read?
A: Its Ki is 177 nM.

Q: `NS(=O)(=O)c1ccc(-n2nnc(-c3nnc(SCC(=O)c4ccc([N+](=O)[O-])cc4)[nH]3)c2-c2ccccc2)cc1` was tested. Which Ki did it give?
A: Its Ki is 204 nM.

Q: How did the Ki turn out when `Cc1c(-c2n[nH]c(=S)[nH]2)nnn1-c1ccc(S(N)(=O)=O)cc1` was run?
A: Its Ki is 1240 nM.

Q: `NS(=O)(=O)c1ccc(-n2nnc(-c3nnc(SCC(=O)c4cccc(Br)c4)[nH]3)c2-c2ccccc2)cc1` was tested. Which Ki did it give?
A: The Ki was 278 nM.

Q: Which Ki does the source give for `Cc1c(-c2nnc(SCC(=O)c3ccc(-c4ccccc4)cc3)[nH]2)nnn1-c1ccc(S(N)(=O)=O)cc1` here?
A: The Ki was 226 nM.

Q: For `NS(=O)(=O)c1ccc(-n2nnc(-c3nnc(SCC(=O)c4ccc(Cl)cc4)[nH]3)c2-c2ccccc2)cc1`, which Ki is on record?
A: The Ki was 477 nM.

Q: With `Cc1ccc(C(=O)CSc2nnc(-c3nnn(-c4ccc(S(N)(=O)=O)cc4)c3-c3ccccc3)[nH]2)cc1` as the molecule, how does the Ki read?
A: The Ki was 294 nM.

Q: How did the Ki turn out when `NS(=O)(=O)c1ccc(-n2nnc(-c3n[nH]c(=S)[nH]3)c2-c2ccccc2)cc1` was run?
A: Its Ki is 51 nM.

Q: For `Cc1c(-c2nnc(SCC(=O)c3ccc(Br)cc3)[nH]2)nnn1-c1ccc(S(N)(=O)=O)cc1`, which Ki is on record?
A: Its Ki is 2830 nM.

Q: How did the Ki turn out when `Cc1c(-c2nnc(SCC(=O)c3ccc(F)cc3)[nH]2)nnn1-c1ccc(S(N)(=O)=O)cc1` was run?
A: Its Ki is 3020 nM.

Q: How did the Ki turn out when `NS(=O)(=O)c1ccc(-n2nnc(-c3nnc(SCC(=O)c4ccc(F)cc4)[nH]3)c2-c2ccccc2)cc1` was run?
A: The Ki was 177 nM.

Q: With `Cc1c(C(=O)NNC(N)=S)nnn1-c1ccc(S(N)(=O)=O)cc1` as the molecule, how does the Ki read?
A: The Ki was 2970 nM.

Q: With `NC(=S)NNC(=O)c1nnn(-c2ccc(S(N)(=O)=O)cc2)c1-c1ccccc1` as the molecule, how does the Ki read?
A: The Ki was 111 nM.

Q: For `NS(=O)(=O)c1ccc(-n2nnc(-c3nnc(SCC(=O)c4ccccc4)[nH]3)c2-c2ccccc2)cc1`, which Ki is on record?
A: The Ki was 135 nM.

Q: With `NS(=O)(=O)c1ccc(-n2nnc(-c3nnc(SCC(=O)c4ccc(-c5ccccc5)cc4)[nH]3)c2-c2ccccc2)cc1` as the molecule, how does the Ki read?
A: The Ki was 734 nM.

Q: `Cc1c(-c2nnc(SCC(=O)c3cccc([N+](=O)[O-])c3)[nH]2)nnn1-c1ccc(S(N)(=O)=O)cc1` was tested. Which Ki did it give?
A: The Ki was 2430 nM.

Q: `Cc1c(-c2nnc(SCC(=O)c3ccccc3)[nH]2)nnn1-c1ccc(S(N)(=O)=O)cc1` was tested. Which Ki did it give?
A: Its Ki is 3200 nM.

Q: How did the Ki turn out when `Cc1ccc(C(=O)CSc2nnc(-c3nnn(-c4ccc(S(N)(=O)=O)cc4)c3C)[nH]2)cc1` was run?
A: Its Ki is 3070 nM.

Q: `Cc1c(-c2nnc(SCC(=O)c3cccc(Br)c3)[nH]2)nnn1-c1ccc(S(N)(=O)=O)cc1` was tested. Which Ki did it give?
A: The Ki was 1470 nM.

Q: With `Cc1c(-c2nnc(SCC(=O)c3ccc(Cl)cc3)[nH]2)nnn1-c1ccc(S(N)(=O)=O)cc1` as the molecule, how does the Ki read?
A: The Ki was 3190 nM.

Q: With `Cc1c(-c2nnc(SCC(=O)c3ccc([N+](=O)[O-])cc3)[nH]2)nnn1-c1ccc(S(N)(=O)=O)cc1` as the molecule, how does the Ki read?
A: The Ki was 3060 nM.
